Results taken from the NIST ThermoML archive (doi:10.1016/j.fluid.2011.11.016).
± gives the expanded uncertainty stated by the source.

Test: xn = mol fraction of the nth substance listed
Conditions: 298.15 K, 101.3 kPa, Liquid, Vibrating tube method

Structure (SMILES) | mass density (x1 = 1) [kg/m3] | mass density (x2 = 0) [kg/m3] | mass density (x2 = 0.0503) [kg/m3] | mass density (x2 = 0.0991) [kg/m3] | mass density (x2 = 0.2021) [kg/m3] | mass density (x2 = 0.3118) [kg/m3] | mass density (x2 = 0.3926) [kg/m3] | mass density (x2 = 0.5039) [kg/m3] | mass density (x2 = 0.666) [kg/m3] | mass density (x2 = 0.7062) [kg/m3] | mass density (x2 = 0.8061) [kg/m3] | mass density (x2 = 0.9061) [kg/m3] | mass density (x2 = 0.9539) [kg/m3]
CCCCCCC [heptane] + C1CCCCC1 | 679.57 ± 0.18 | – | – | – | – | – | – | – | – | – | – | – | –
C1CCCCC1 [cyclohexane] + CCCCCCC | – | 773.88 ± 0.13 | 766.95 ± 0.14 | 760.53 ± 0.14 | 748.16 ± 0.15 | 735.69 ± 0.15 | 726.61 ± 0.15 | 717.21 ± 0.16 | 703.79 ± 0.17 | 700.61 ± 0.17 | 692.71 ± 0.17 | 685.62 ± 0.18 | 682.6 ± 0.18
